This is an account of results in US8697662B2, “Methods for treating Kaposi sarcoma” (PTC Therapeutics, Inc., priority 2009, dated 2014).

Test [1] concerns KS-like angioproliferative lesions. Conditions: nude mice, doses similar to AIDS patients; cited from earlier work.
The subject of test [2] is hypoxia-inducible endogenous VEGF expression. In words: Hypoxia-inducible endogenous VEGF expression ELISA in HeLa cells, dose-response EC50 (Table 3). Format: cell-based. Conditions: Homo sapiens, hypoxic conditions (1% O2), VEGF ELISA of conditioned media. The protocol: The ability of the Compounds to modulate hypoxia-inducible endogenous VEGF expression may be analyzed as follows. VEGF protein levels may be monitored by an ELISA assay (R&D Systems). Briefly, HeLa cells may be cultured for 24-48 hours under hypoxic conditions (1% O2, 5% CO2, balanced with nitrogen) in the presence or absence of a Compound. The conditioned media may then be assayed by ELISA, and the concentration of VEGF calculated from the standard ELISA curve of each assay.
A dose-response analysis may be performed using the ELISA assay and conditions described above. The conditions for the dose-response ELISA are analogous to those described above. A series of, e.g., seven different concentrations may be analyzed. In parallel, a dose-response cytotoxicity assay may be performed using Cell Titer Glo (Promega) under the same conditions as the ELISA to ensure that the inhibition of VEGF expression was not due to the cytotoxicity.
A general note: In an ELISA, binding on a coated surface is turned into a signal by an enzyme label.

The next test concerns HT1080 cells. Put plainly: Cell cycle analysis by propidium iodide flow cytometry in HT1080 cells (S-phase accumulation, Table 24). Conditions: same tumor cells; data not shown. Format: cell-based, human. The protocol: Experimental Design. […] After treatment, cells were trypsinized, and stained with propidium iodide (PI) dye to measure DNA content of individual cells by flow cytometry. Output comprised histograms showing relative DNA content in 10,000 cells.
While compounds which cause greater than 20% of the cells to accumulate in S-phase at 100 nM are considered active, a larger percentage of cells may be accumulated in S-phase at lower doses depending on the Compound, as shown in FIG. 12 for example.

For test [3], the system named is primary endothelial cells. The conditions noted are these: in-vitro; cited from earlier work.
The subject of test [4] is HT1080 xenografts. Put plainly: Time course of tumor size and plasma human VEGF in HT1080 xenografts. Conditions: by Day 1. Type of test: in vivo, athymic nude mice. The method, then: (§1) Experimental Design. HT1080 cells (5×10^6 cells/mouse) were implanted subcutaneously in male athymic nude mice.
Tumor size was measured by calipers immediately pre-treatment and at the time of sacrifice on Day 1, 2, or 3 (5 mice per group per day). At sacrifice, the plasma was collected for assay of pathologic human VEGF concentration using an ELISA that recognizes human VEGF121 and VEGF165 (as described in Section 9.1.1.1).
A general note: A xenograft is tissue or cells of one species grown in another, often human tumour cells in immunodeficient mice.

The test system of test [5] is HT1080 xenografts. In words: BrdU labeling of tumor cells from HT1080 xenografts in vivo. Also noted: species or system athymic nude mice. The conditions noted are these: HT1080 xenografts, 1, 2, or 3 days of treatment. The method, then:
as §1
The mice were sacrificed 3 hours later, and the tumors collected. A single cell suspension was prepared from the tumor cells. The cells were permeabilized and an antibody to BrdU was used to stain cells that had entered S phase during the labeling period. The proportion of cells actively synthesizing DNA was determined by cell sorting.

In the case of `CC(C)(C)NC(=O)[C@@H]1C[C@@H]2CCCC[C@@H]2CN1C[C@@H](O)[C@H](Cc1ccccc1)NC(=O)[C@H](CC(N)=O)NC(=O)c1ccc2ccccc2n1` [saquinavir], in test [1], the “macroscopic KS-like angioproliferative lesions (in words)” value was “reduction in the number and size”. For `NC(=O)COc1ccc(C2c3[nH]c4ccc(Cl)cc4c3CCN2C(=O)Oc2ccc(Cl)cc2)cc1` (stereo not drawn) [Compound 1161], the EC50 – broadly, the midpoint of the concentration-response curve – in test [2] is below 8 nM. For the molecule `CC(C)(C)NC(=O)[C@@H]1CN(Cc2cccnc2)CCN1C[C@@H](O)C[C@@H](Cc1ccccc1)C(=O)N[C@H]1c2ccccc2C[C@H]1O` [indinavir], the “macroscopic KS-like angioproliferative lesions (in words)” value in test [1] was “reduction in the number and size”. As to `NC(Cn1ccc(=O)c(O)c1)C(=O)O` (stereo not drawn) [mimosine, reference compound], in the test with HT1080 cells, the “effect on cell cycle (and VEGF production) (in words)” value is “does not delay or prolong the cell cycle or reduce VEGF production”. In turn, `CC(CO)(CO)COc1ccc([C@H]2c3[nH]c4ccc(Cl)cc4c3CCN2C(=O)Oc2ccc(F)cc2)cc1` [Compound 1335] registered an EC50 in test [2] (24-48 hours) of 8 to 40 nM. In the case of `CC(C)c1nc(CN(C)C(=O)N[C@H](C(=O)N[C@@H](Cc2ccccc2)C[C@H](O)[C@H](Cc2ccccc2)NC(=O)OCc2cncs2)C(C)C)cs1` [ritonavir], in test [3], the “activation and proliferation of primary endothelial cells (in words)” value is “inhibition of activation and proliferation”; the “production of TNF-α, IL-6, IL-8 and VEGF (in words)” value is “decreased production”. As to `COc1cccc2c1C(=O)c1c(O)c3c(c(O)c1C2=O)C[C@@](O)(C(=O)CO)C[C@@H]3O[C@H]1C[C@H](N)[C@H](O)[C@H](C)O1` [doxorubicin, reference compound], the “pathologic plasma human VEGF levels (in words)” value in the test on HT1080 xenografts [4] was “numerically lower than in control animals”. In addition, the “BrdU staining of tumor cells (fraction in S phase) (in words)” value in the test on HT1080 xenografts [5] is given as “decreased the percentage of tumor cells staining with BrdU”.
